Data published in article PMC7224190, “Pharmacological inhibition of PRMT7 links arginine monomethylation to the cellular stress response” (Nature Communications, 2020).

Biological target: T1, PRMT7 (Homo sapiens, UniProt Q9NVM4)
T1 sequence (Q9NVM4 1-692): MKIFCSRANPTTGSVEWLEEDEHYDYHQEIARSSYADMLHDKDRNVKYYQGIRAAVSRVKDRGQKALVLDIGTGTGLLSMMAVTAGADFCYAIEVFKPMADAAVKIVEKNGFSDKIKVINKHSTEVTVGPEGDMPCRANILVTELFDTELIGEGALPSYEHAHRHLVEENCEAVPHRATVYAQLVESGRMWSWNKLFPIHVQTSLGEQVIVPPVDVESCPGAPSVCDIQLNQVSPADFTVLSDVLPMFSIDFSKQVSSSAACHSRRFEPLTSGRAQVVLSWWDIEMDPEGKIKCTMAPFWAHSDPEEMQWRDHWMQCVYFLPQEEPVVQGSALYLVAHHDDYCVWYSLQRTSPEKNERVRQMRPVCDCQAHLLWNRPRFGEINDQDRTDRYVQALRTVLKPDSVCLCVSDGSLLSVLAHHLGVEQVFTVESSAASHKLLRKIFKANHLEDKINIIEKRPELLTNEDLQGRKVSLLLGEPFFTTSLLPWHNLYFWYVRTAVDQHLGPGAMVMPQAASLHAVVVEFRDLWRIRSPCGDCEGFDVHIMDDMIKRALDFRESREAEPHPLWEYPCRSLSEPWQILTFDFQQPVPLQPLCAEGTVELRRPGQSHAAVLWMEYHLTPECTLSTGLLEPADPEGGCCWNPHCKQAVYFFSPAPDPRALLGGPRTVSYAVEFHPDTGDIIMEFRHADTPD
Assay: biochemical
Parameters: full-length; radiometric methyltransferase selectivity assay with tritiated SAM, per cent activity
Details: read-out: % of control remaining
Description: The methyltransferase selectivity was assessed at two compound concentrations of 1 and 10 μM by radiometric assays using tritiated-SAM. For methyltransferases: MLL1, MLL3, EZH1 (PRC2), and EZH2 (PRC2), G9a, GLP, SUV39H1, SUV39H2, SUV420H1, SUV420H2, SETD2, SETD8, SETDB1, SETD7, PRMT1, PRMT3, PRMT4, PRMT5/ MEP50 complex, PRMT6, PRMT7, PRMT8, PRMT9, PRDM9, SMYD2, SMYD3, DNMT1, and BCDIN3D the incorporation of a tritium-labeled methyl group into biotinylated substrate was monitored using scintillation proximity assay (SPA). Briefly, a 10 μL reaction containing ^3H-SAM and substrate at concentrations close to the apparent Km values for each enzyme (balanced conditions) was prepared. The reactions were quenched with 10 μL of 7.5 M guanidine hydrochloride; 180 μL of 20 mM Tris buffer (pH 8.0) were added, and the mixture was transferred to a 96-well FlashPlate and incubated for 1 h. The counts per minute (CPM) was measured on a TopCount plate reader. The CPM in the absence of compound or enzyme was defined as 100% activity and background (0%), respectively, for each dataset[74]–[76]. Selectivity of SGC8158 against 342 kinases was evaluated in a kinase panel TR-FRET assay at 1 and 0.1 μM compound in duplicates as described before. Briefly, tagged kinases were incubated with compound and staurosporine-based fluorescent probe where the binding was detected using Tb conjugated anti-tag antibody energy transfer to the probe. Excitation wavelength was 337 nm and fluorescent emission signal was measured for Tb (486 nm) and fluorescent probe (BODIPY, 515 nm). Specific and non-specific binding was determined in the absence and presence of unlabeled staurosporine.

SMILES: CC1(C)O[C@@H]2[C@H](O1)[C@@H](CSCCCCNCc1cccc(-c3ccc(Cl)cc3)c1)O[C@H]2n1cnc2c(N)ncnc21 [SGC8158N]
- remaining activity at 1 µM: 95%
- remaining activity at 10 µM: 75%

SMILES: Nc1ncnc2c1ncn2[C@@H]1O[C@H](CSCCCCNCc2cccc(-c3ccc(Cl)cc3)c2)[C@@H](O)[C@H]1O [SGC8158]
- remaining activity at 1 µM: 2%
- remaining activity at 10 µM: 0%
